Data as given in patent US6242433A, “Geranylgeranyl-derivatives, process for the preparation thereof and related pharmaceutical compositions” (Laboratori Baldacci SpA, priority 1995, dated 2001).
Counter-ions that a name gives are not always drawn. Like-named read-outs stand apart in the source and are kept apart here.

Tests used:
p21rap1 = test: inhibition of p21rap1 geranylgeranylation in a malignant tumoral human cell line (electrophoresis, PVDF membrane, specific polyclonal antibody); type: cell-based; details: 75 μM; 24 hours
Description: The ability of the compounds according to the present invention of inhibiting the protein geranylgeranylation has been evaluated by means of an in vitro test on a malignant tumoral human cell line which has been treated with the following geranylgeranyl-derivatives:
The cells have been treated with increasing amounts of the geranylgeranyl derivatives BAL9504, BAL9505, BAL9603, BAL9605, BAL9608, BAL9609, BAL9610, BAL9611, BAL9613, BAL9503, BAL9614, (1-75 μM) and, after 24 hours, they have been collected and solubilized in a lysis solution containing non-ionic detergents. The soluble fraction has been collected by centrifugation and proteins separated by means of acrylamide gel electrophoresis and subsequently transferred onto a polyvinylidene fluoride (PVDF) membrane.
The presence of the geranylgeranylated protein p21rap1 has been then evidenced by means of a specific polyclonal antibody followed by chemiluminescent detection by means of a secondary antibody linked to alkaline phosphatase as previously described (M. A. Mansfield, FASEB J., S, A1428, 1994).

MIA PaCa-2 cell line [1] = test: citotoxicity on human pancreas cancer MIA PaCa-2 cell line; type: cell-based
Excerpt: The relevance of such an effect on cell proliferation has been then evaluated by studying the citotoxicity of the above-mentioned compounds on the of human pancreas cancer MIA PaCa-2 cell line following the method described by R. Danesi et. al., Mol. Pharmacol., 47, 1106, 1995.
(§1) The citotoxicity of the geranylgeranyl-derivatives BAL9504 and BAL9503 has also been evaluated on the normal diploid fibroblast cells MRC-5 from human lung following the method described by R. Danesi et. al., Mol. Pharmacol., 47, 1106, 1995. Table 2 reports the concentration of the compounds under study that produces 50% growth inhibition (IC50) in MRC-5 and MIA PaCa-2 cell lines together with the sensibility index, that is the ratio between the IC50 in MRC-5 and MIA PaCa-2 cells.

[2] = test system: normal diploid fibroblast cells MRC-5; test: citotoxicity on normal diploid fibroblast cells MRC-5 from human lung; type: cell-based; details: Table 2; for IC50: Homo sapiens, MRC5, MRC-5, read-out: IC50 (50% growth inhibition); for Sensibility Index (ratio between the IC50 in MRC-5 and MIA PaCa-2 cells): IC50 MRC-5 / IC50 MIA PaCa-2
Excerpt: as §1

MIA PaCa-2 cell line [3] = test: apoptosis in MIA PaCa-2 cells (ELISA of fragmented DNA); type: cell-based, human; details: 1-75 μM; vs non-treated cells
Excerpt: Apoptosis consists in enzymatic digestion of nuclear DNA by endogenous nucleases within the cell and it occurs when cell replication is impaired by agents that block cell cycle progression towards mitosis.

[4] = Table 1, read-out: IC50 (the concentration that produces 50% reduction in cell growth)
[5] = Table 2, read-out: IC50 (50% growth inhibition)

Structure (SMILES) | amount of the non-isoprenylated protein relative to the isoprenylated one (p21rap1) (p21rap1) | IC50 (MIA PaCa-2 cell line [1]; [4]) [µM] | IC50 (MIA PaCa-2 cell line [1]; [5]) [µM] | IC50 [2] [µM] | Sensibility Index (ratio between the IC50 in MRC-5 and MIA PaCa-2 cells) [2] | induction of death for apoptosis (MIA PaCa-2 cell line [3])
CC(C)=CCC/C(C)=C/CC/C(C)=C/CC/C(C)=C/COC(=O)NS(N)(=O)=O [BAL9503, (E,E,E)-O-(3,7,11,15-tetramethyl-2,6,10,14-hexadecatetraenyl)-N-(aminosulfonyl)urethane] | equal to that of the isoprenylated one | 10.5 | 10.5 | 256 | 24.4 | induce death for apoptosis
CC(C)=CCC/C(C)=C/CC/C(C)=C/CC/C(C)=C/CCP(=O)(O)CP(=O)(O)O [BAL9609, tripotassium salt of (E,E,E)-[[(4,8,12,16-tetramethyl-3,7,11,15-heptadecatetraenyl)hydroxyphosphoryl]methyl]phosphonic acid] | – | 3.5 | – | – | – | induce death for apoptosis
CCOP(=O)(O)CC(=O)NOC/C=C(\C)CC/C=C(\C)CC/C=C(\C)CCC=C(C)C [BAL9505, monosodium salt of the monoethyl-ester of (E,E,E)-{2-oxo-2[[(3,7,11,15-tetramethyl-2,6,10,14-hexadecatetraenyl)oxy]amino]ethyl}phosphonic acid] | equal to that of the isoprenylated one | > 30 | – | – | – | –
CC(C)=CCC/C(C)=C/CC/C(C)=C/CC/C(C)=C/CONC(=O)CP(=O)(O)O [BAL9504, dipotassium salt of (E,E,E)-{2-oxo-2-[[(3,7,11,15-tetramethyl-2,6,10,14-hexadecatetraenyl)oxy]amino]ethyl}phosphonic acid] | equal to that of the isoprenylated one | 2.1 | 2.1 | 54.6 | 26 | induce death for apoptosis
CC(C)=CCC/C(C)=C/CC/C(C)=C/CC/C(C)=C/CCP(=O)(O)C(C)(C)P(=O)(O)O [BAL9610, tripotassium salt of (E,E,E)-1-methyl-1[(4,8,12,16-tetramethyl-3,7,11,15-heptadecatetraenyl)hydroxyphosphoryl]ethylphosphonic acid] | – | > 30 | – | – | – | –
CC(C)=CCC/C(C)=C/CC/C(C)=C/CC/C(C)=C/CCP(=O)(O)O [BAL9613, dipotassium salt of (E,E,E)-(4,8,12,16-tetramethyl-3,7,11,15-heptadecatetraenyl)phosphonic acid] | – | > 30 | – | – | – | –
CC(C)=CCC/C(C)=C/CC/C(C)=C/CC/C(C)=C/CNC(=O)CCP(=O)(O)O [BAL9608, dipotassium salt of (E,E,E)-[3-oxo-3-[(3,7,11,15-tetramethyl-2,6,10,14-hexadecatetraenyl)amino]propyl]phosphonic acid] | – | 16.7 | – | – | – | –
CCC(CC)(P(=O)(O)O)P(=O)(O)CC/C=C(\C)CC/C=C(\C)CC/C=C(\C)CCC=C(C)C [BAL9611, tripotassium salt of (E,E,E)-1-ethyl-1-[(4,8,12,16-tetramethyl-3,7,11,15-heptadecatetraenyl)hydroxyphosphoryl]propylphosphonic acid] | – | 1.5 | – | – | – | induce death for apoptosis
CC(C)=CCC/C(C)=C/CC/C(C)=C/CC/C(C)=C/CNC(=O)CP(=O)(O)O [BAL9605, dipotassium salt of (E,E,E)-[2-oxo-2-[(3,7,11,15-tetramethyl-2,6,10,14-hexadecatetraenyl)amino]ethyl]phosphonic acid] | – | 7.7 | – | – | – | induce death for apoptosis
CC(C)=CCC/C(C)=C/CC/C(C)=C/CC/C(C)=C/CONS(N)(=O)=O [BAL9614, (E,E,E)-1-[(aminosulfonyl)aminoxy]-3,7,11,15-tetramethyl-2,6,10,14-hexadecatetraene] | – | 11.9 | – | – | – | –
CC(C)=CCC/C(C)=C/CC/C(C)=C/CC/C(C)=C/CONC(=O)CCP(=O)(O)O [BAL9603, dipotassium salt of (E,E,E)-{3-oxo-3-[[(3,7,11,15-tetramethyl-2,6,10,14-hexadecatetraenyl)oxy]amino]propyl}phosphonic acid] | – | > 30 | – | – | – | –
